Results on 8 compounds are retold here after patent US10174032B2, “Heterocyclic compound classes for signaling modulation” (SignalRx Pharmaceuticals, Inc., priority 2014, dated 2019).

One experiment has as its target BRD4 (Homo sapiens, UniProt O60885). The experiment is described as follows: BRD4 inhibition assay of CAL101. It counts as binding. The conditions noted are these: no significant BRD4 inhibition.
For another experiment, the system named is PC3 cells. The experiment is described as follows: PC3 cell proliferation (WST, 72 hours). It counts as cell-based. The conditions noted are these: Homo sapiens, PC-3; PC3 cells, 72 hours, WST; read-out: PC3 cell proliferation(IC50 μM). How it is done: The PC3 cell proliferation data in column 26 of Table 5 was obtained as follows: PC3 cells were obtained from the American Type Culture Collection (ATCC, Manassas, Va., Cat.#CRL-1435). Two thousand cells from the prostate cancer line PC3 were placed in 50 μL of complete RPMI 1640 media (Invitrogen, Carlsbad, Calif., Cat.#22400-105) with 10% fetal bovine serum, (Invitrogen, Carlsbad, Calif., Cat.#10438-026) into each well of 96-well cell culture plates in a hexaplicate sampling pattern. A 50 μL aliquot of test compound (prepared from stock test compounds in DMSO diluted into media) was added to the appropriate well such that the final concentrations of test compound were 200, 40, 8, 1.6, 0.32, 0.064, 0.0128, 0.00256, and 0 μM and the final DMSO concentration was less than or equal to 0.2% . The plates were incubated for 72 hours 37° C. in an atmosphere of 5% CO2. At the end of this time a 10 μL aliquot of WST solution (Roche Applied Science, Mannheim, Germany) was added into each of the wells. Cells were exposed to the WST solution for 4 hours. A SpectraMax Plus spectrophotometric plate reader (Molecular Devices, Sunnydale, Calif.) was then used to measure the optical density at 450 nm (OD450 nm). Sigmoidal curves were drawn for the dose responses and IC50 values were calculated using the software package GraphPad Prism4 (GraphPad Software, Inc., San Diego, Calif.).

In the next experiment the target is PI3K-gamma (Homo sapiens, UniProt P48736). Description: Kinase inhibition assay, P-33 labelled ATP phosphate transfer, PI3K-gamma. It counts as biochemical. The conditions noted are these: for inhibition at 10 µM: read-out: PI3K-gamma(% Inh at 10 μM). As to the method:
(§1) The assays determined the amount of radioactive phosphate transferred from P-33 labelled ATP to the substrate by the enzyme in the presence of various concentrations of the inhibitor test compounds. […] After this time period the cells were serum starved for 5 hours followed by application of the test compound. Test compound was added as a DMSO (dimethyl sulfoxide) solution such that the final DMSO concentration in the cell media was less than or equal to 0.2% by volume. After 30 minutes of exposure the growth factor stimulant, human IGF-1 (Pepro Tech, Inc., Rocky Hill, N.J., Cat.#100-11), was added in each well. […] A SpectraMax Plus spectrophotometric plate reader (Molecular Devices, Sunnydale, Calif.) was used to measure the optical density signal for pAKT at 450 nm (OD450 nm). The pAKT OD450 nm readings were normalized by total protein amount in the cell lysates determined by standard methods. Concentrations of test compounds required to inhibit IGF stimulated pAKT levels to 50% of maximum levels in PC3 cells (termed DM50 for decreased maximum 50%) were calculated by inputting the dose responses in the software package GraphPad Prism4 (GraphPad Software, Inc., San Diego, Calif.).

Another experiment deals with PI3K-delta (Homo sapiens, UniProt O00329). Description: Kinase inhibition assay, P-33 labelled ATP phosphate transfer, PI3K-delta. Format: biochemical. The conditions noted are these: for inhibition at 10 µM: read-out: PI3K-delta(% Inh at 10 μM). As to the method:
as §1

The target of another experiment is mTOR (Homo sapiens, UniProt P42345). Description: Kinase inhibition assay, P-33 labelled ATP phosphate transfer, mTOR. Format: biochemical. The conditions noted are these: for inhibition at 0.3 µM: read-out: mTOR(% Inh at 300 nM); for inhibition at 10 µM: read-out: mTOR(% Inh at 10 μM). As to the method: as §1
The next experiment deals with PLK-1 (Homo sapiens, UniProt P53350). Description: Kinase inhibition assay, P-33 labelled ATP phosphate transfer, PLK-1. Format: biochemical. As to the method: as §1
Another experiment concerns the target PI3K-beta (Homo sapiens, UniProt P42338). The experiment is described as follows: Kinase inhibition assay, P-33 labelled ATP phosphate transfer, PI3K-beta. Format: biochemical. The conditions noted are these: for inhibition at 10 µM: read-out: PI3K-beta(% Inh at 10 μM). As to the method:
as §1

The next experiment has as its target PI3K-alpha (Homo sapiens, UniProt P42336). Description: Kinase inhibition assay, P-33 labelled ATP phosphate transfer, PI3K-alpha. It counts as biochemical. The conditions noted are these: for inhibition at 0.3 µM: read-out: PI3K-alpha (% Inh at 300 nM). As to the method: as §1
Experiment [1] relates to pAKT serine 473 in PC3 cells. Description: IGF-1 stimulated pAKT serine 473 level in PC3 cells (sandwich ELISA). Format: cell-based. The conditions noted are these: Homo sapiens, PC-3, 0.5 h, 30 minutes compound exposure, termed DM50 in text. As to the method: as §1
The target in a further experiment is PIM-1 (Homo sapiens, UniProt P11309). Description: Kinase inhibition assay, P-33 labelled ATP phosphate transfer, PIM-1. Format: biochemical. The conditions noted are these: for inhibition at 10 µM: read-out: PIM-1(% Inh at 10 μM). How it is done: as §1
The target in the next experiment is DNA-PK (Homo sapiens, UniProt P78527). The experiment is described as follows: Kinase inhibition assay, P-33 labelled ATP phosphate transfer, DNA-PK. It counts as biochemical. As to the method:
as §1

A further experiment relates to PI-3 kinases. The conditions noted are these: cited from earlier work.
For the next experiment, the target named is BET protein BRD4-1 (Homo sapiens, UniProt O60885). The conditions noted are these: S W J Ember 2014; cited from earlier work.

PI3K-alpha, sequence (P42336 whole entry, species assumed): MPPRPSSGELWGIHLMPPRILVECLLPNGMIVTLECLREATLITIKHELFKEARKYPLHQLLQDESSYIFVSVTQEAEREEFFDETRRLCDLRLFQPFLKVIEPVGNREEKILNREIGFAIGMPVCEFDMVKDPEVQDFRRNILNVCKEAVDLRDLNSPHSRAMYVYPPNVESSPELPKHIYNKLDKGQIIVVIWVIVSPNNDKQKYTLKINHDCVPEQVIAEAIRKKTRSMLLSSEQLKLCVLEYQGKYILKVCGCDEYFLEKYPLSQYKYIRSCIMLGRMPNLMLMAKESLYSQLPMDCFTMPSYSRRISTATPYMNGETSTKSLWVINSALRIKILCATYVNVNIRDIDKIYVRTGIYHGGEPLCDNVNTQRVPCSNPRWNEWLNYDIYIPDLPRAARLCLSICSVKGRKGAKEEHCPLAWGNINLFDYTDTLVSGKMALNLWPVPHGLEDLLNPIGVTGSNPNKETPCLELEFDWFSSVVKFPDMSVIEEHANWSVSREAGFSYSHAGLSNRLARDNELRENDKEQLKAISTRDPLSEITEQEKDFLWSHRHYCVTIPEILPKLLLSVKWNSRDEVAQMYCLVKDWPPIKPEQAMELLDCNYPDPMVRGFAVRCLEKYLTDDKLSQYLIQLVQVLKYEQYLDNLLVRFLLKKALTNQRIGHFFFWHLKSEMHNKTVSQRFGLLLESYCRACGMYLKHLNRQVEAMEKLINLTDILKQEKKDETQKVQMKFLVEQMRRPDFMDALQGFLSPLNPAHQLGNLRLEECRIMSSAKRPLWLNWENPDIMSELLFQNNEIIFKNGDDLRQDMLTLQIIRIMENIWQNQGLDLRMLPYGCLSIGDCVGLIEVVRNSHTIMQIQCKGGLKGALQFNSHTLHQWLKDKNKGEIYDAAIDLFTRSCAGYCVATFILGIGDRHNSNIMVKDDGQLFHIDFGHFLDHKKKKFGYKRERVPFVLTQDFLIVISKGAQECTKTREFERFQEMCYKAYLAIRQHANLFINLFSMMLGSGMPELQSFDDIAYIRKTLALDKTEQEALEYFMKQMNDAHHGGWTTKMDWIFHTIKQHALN
PI3K-alpha, sequence (P27986 whole entry partner, species assumed): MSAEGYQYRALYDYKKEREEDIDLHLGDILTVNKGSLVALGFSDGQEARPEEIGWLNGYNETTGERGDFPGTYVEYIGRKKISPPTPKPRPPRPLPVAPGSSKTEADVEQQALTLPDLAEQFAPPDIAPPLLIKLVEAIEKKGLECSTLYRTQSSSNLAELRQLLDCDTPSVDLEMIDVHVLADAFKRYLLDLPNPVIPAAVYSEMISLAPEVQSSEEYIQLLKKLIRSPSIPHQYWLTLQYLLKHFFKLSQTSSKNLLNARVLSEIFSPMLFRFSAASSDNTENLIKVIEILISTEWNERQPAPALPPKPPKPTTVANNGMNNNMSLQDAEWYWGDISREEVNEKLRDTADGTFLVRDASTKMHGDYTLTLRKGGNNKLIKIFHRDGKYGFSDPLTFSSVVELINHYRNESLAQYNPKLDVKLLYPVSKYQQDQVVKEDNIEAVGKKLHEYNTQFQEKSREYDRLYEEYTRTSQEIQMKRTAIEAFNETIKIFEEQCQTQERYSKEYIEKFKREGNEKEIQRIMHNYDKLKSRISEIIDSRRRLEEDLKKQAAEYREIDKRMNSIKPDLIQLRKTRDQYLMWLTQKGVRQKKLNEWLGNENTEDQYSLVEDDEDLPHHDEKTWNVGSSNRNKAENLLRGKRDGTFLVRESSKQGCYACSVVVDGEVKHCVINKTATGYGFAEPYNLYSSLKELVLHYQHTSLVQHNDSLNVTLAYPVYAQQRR
PI3K-beta, sequence (P42338 whole entry, species assumed): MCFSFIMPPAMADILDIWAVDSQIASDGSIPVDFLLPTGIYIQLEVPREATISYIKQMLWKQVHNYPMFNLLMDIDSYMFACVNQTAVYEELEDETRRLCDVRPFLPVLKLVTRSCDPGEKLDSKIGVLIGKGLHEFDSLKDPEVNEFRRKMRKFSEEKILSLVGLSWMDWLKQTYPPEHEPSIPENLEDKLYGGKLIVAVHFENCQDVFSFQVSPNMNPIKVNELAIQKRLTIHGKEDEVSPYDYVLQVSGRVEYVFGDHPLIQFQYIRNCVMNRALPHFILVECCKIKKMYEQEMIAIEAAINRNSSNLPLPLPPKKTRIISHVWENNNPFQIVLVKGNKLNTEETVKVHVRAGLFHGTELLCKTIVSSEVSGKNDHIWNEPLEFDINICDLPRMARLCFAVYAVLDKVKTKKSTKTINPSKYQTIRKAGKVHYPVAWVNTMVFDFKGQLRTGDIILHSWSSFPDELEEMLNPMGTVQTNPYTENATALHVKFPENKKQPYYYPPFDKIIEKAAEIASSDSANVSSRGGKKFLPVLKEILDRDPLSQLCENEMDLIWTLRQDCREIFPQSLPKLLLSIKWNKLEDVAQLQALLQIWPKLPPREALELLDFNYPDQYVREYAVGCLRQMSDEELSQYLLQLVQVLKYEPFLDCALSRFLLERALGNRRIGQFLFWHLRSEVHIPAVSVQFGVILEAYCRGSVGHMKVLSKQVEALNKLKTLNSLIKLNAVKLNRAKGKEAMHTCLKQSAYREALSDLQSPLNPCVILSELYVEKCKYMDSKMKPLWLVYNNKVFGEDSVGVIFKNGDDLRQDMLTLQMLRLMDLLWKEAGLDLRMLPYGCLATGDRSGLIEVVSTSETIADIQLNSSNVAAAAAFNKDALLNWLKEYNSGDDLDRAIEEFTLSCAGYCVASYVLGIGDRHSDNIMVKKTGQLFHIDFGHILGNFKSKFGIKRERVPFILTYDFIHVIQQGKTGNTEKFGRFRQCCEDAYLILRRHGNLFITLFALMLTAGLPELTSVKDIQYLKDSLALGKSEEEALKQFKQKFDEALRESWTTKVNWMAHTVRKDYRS
PI3K-beta, sequence (P27986 whole entry partner, species assumed): as the sequence (P27986 whole entry partner, species assumed) above
PIM-1, sequence (P11309 whole entry, species assumed): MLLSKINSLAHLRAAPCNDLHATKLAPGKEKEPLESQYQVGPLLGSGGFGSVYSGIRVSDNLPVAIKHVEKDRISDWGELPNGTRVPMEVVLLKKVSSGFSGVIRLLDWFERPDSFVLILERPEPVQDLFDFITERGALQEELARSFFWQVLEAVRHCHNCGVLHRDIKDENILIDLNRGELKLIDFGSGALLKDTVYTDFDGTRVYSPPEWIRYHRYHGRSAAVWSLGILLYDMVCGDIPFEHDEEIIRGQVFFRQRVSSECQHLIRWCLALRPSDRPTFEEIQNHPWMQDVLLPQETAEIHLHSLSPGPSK
PI3K-gamma, sequence (P48736 whole entry, species assumed): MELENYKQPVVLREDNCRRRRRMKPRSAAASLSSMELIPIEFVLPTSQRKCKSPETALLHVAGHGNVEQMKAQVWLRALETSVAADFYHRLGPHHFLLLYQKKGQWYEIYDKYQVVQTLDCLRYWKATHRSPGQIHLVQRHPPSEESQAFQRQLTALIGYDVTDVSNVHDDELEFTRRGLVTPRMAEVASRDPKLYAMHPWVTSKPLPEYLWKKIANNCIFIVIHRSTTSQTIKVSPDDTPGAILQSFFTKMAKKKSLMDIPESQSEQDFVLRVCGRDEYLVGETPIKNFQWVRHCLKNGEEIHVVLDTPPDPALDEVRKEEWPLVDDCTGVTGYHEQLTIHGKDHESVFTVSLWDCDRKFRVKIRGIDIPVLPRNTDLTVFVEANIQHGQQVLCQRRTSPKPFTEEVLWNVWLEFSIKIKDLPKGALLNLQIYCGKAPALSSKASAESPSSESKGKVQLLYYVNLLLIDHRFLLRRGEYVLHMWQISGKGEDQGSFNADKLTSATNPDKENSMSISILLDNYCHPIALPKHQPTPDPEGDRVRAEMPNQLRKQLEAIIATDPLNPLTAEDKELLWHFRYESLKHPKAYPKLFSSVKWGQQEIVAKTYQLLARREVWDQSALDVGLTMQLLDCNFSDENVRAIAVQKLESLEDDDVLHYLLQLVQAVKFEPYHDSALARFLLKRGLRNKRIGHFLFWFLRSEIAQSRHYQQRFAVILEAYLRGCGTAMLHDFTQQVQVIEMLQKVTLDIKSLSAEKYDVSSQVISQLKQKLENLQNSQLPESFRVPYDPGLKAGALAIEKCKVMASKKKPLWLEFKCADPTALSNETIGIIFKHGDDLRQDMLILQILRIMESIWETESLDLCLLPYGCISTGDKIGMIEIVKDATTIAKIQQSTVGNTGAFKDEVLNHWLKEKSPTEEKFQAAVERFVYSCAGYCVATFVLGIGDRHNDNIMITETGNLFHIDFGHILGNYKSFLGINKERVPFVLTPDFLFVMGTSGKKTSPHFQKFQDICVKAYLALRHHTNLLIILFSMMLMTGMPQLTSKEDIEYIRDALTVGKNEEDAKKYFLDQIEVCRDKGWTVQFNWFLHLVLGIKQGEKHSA
PLK-1, sequence (P53350 whole entry, species assumed): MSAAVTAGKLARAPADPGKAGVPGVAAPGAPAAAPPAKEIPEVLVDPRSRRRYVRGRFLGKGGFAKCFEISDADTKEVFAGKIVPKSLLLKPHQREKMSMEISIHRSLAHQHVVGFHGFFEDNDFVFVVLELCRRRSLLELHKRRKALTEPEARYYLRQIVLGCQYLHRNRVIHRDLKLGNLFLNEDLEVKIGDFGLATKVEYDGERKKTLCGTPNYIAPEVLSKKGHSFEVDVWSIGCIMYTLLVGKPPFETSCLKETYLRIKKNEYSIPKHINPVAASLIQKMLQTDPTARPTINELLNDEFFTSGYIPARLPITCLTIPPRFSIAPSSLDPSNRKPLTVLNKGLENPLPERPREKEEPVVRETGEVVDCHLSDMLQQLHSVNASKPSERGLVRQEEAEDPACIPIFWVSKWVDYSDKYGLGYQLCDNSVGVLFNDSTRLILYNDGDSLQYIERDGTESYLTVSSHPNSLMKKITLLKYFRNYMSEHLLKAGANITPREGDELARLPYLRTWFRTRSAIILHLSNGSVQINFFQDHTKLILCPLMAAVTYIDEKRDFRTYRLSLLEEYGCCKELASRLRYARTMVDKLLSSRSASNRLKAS

As to `CC[C@H](Nc1ncnc2[nH]cnc12)c1nc2cccc(F)c2c(=O)n1-c1ccccc1` [CAL101], on BRD4, the IC50 is above 50 µM.

Take `O=c1nc(N2CCOCC2)oc2c(-c3ccccc3)csc12` [Compound 3, 2-morpholino-7-phenyl-4H-thieno[2,3-e][1,3]oxazin-4-one]: the IC50 in the experiment with PC3 cells was found to be 28 µM; against PI3K-gamma, 5.5 µM; on PI3K-delta it was 1.5 µM; on PLK-1, 2.3 µM; against PI3K-beta it was 10 µM; at PI3K-alpha, 1.4 µM. This compound also came in with an IC50 in experiment [1] of 11 µM. Moreover, the inhibition at 0.3 µM on mTOR turned out to be 4%.

Take `O=c1nc(N2CCOCC2)[nH]c2c1cnn2-c1ccccc1` [Compound 22]: the IC50 with PC3 cells came out at 263 µM. For the same compound, the inhibition at 10 µM at PI3K-gamma was 8%; on PIM-1, 45%; on PI3K-delta, 20%. In addition, the figures for the inhibition at 0.3 µM on mTOR and at PI3K-alpha were 42% and 14%, respectively.

For the compound `CCOC(=O)Cn1ncc2c(=O)nc(N3CCOCC3)[nH]c21` [Compound 24], the IC50 with PC3 cells was 1.4 µM; at DNA-PK it was 24 µM. In addition, the inhibition at 10 µM on PI3K-gamma worked out at 14%; at PIM-1, 0.9%; at PI3K-delta it was 7.2%; at mTOR it was 0%; at PLK-1 (read-out: PLK-1(% Inh at 10 μM)), 7.5%; at PI3K-beta, 22%. Moreover, the inhibition at 0.3 µM on PI3K-alpha was determined as 6.6%.

Turning to `O=c1nc(N2CCOCC2)[nH]c2c1cnn2-c1ccc2c(c1)OCCO2` [Compound 27], the results for the IC50 in the experiment with PC3 cells, against PIM-1 and against DNA-PK were 149 µM, 1 µM and 24 µM, respectively. The inhibition at 10 µM on PI3K-gamma stood at 48%; at PI3K-delta, 50%; at mTOR, 4.4%; at PI3K-beta, 12%. For the same compound, the inhibition at 0.3 µM on PI3K-alpha worked out at 30%.

`O=c1cc(N2CCOCC2)oc2c(-c3ccccc3)cccc12` [LY294002, 2-(4-morpholinyl)-8-phenyl-4H-1-benzopyran-4-one]: the IC50 with PI-3 kinases (C. J. Vlahos et al. 1994) is 1.4 µM.

In the case of `O=c1cc(N2CCNCC2)oc2c(-c3ccccc3)cccc12` [LY303511], the PI3K inhibition activity entry in the experiment on PI-3 kinases (C. Vlahos et al. 1994) is “lose all PI3K inhibition activity”.

`Cc1cnc(Nc2ccc(N3CCN(C)CC3)cc2)nc1Nc1cccc(S(=O)(=O)NC(C)(C)C)c1` [TG101209]: the “inhibition of BET protein BRD4-1” value at BET protein BRD4-1 was “potently inhibit”.
